Test results taken from patent publication US11325913B2, “Compounds and methods for the treatment of malaria” (THE BROAD INSTITUTE, INC., priority 2013, dated 2022).

Test system: P. falciparum Dd2
Test: Activity against the Dd2 strain of P. falciparum (SYBR Green I, 72 h)
Format: cell-based
Conditions: P. falciparum Dd2, 72 h incubation
Procedure: The Dd2 strain of P. falciparum was cultured in complete medium (RPMI with L-glutamine, 4.3% heat-inactivated O-positive human serum, 2.08 mg/ml albumax, 0.013 mg/ml hypoxanthine, 1.17 mg/ml glucose, 0.18% NaHCO3, 0.031 M Hepes, 2.60 mM NaOH, and 0.043 mg/ml gentamicin) until the parasitemia reached 3-8%. Parasitemia was determined by checking at least 500 red blood cells from a Giemsa-stained blood smear. The Dd2 cultures along with tested O-positive red blood cells were centrifuged at room temperature at 2,000 rpm for 5 minutes using an Eppendorf centrifuge 5810R with an A-4-81 rotor. The medium was aspirated off. For the compound screening, a parasite dilution at a 1% parasitemia and 1.0% hematocrit was created with screening medium (RPMI with L-glutamine, 4.16 mg/ml albumax II, 0.013 mg/ml hypoxanthine, 1.73 mg/ml glucose, 0.18% NaHCO3, 0.031 M Hepes, 2.60 mM NaOH, and 0.043 mg/ml gentamicin). The suspension was gassed with 93% nitrogen, 4% carbon dioxide, and 3% oxygen and placed at 37° C. until needed. Using a liquid dispenser, 20 μl of screening medium was dispensed into 384-well, black, clear-bottom plates. With a PinTool, 100 nl of compounds dissolved in DMSO was transferred into the assay plates along with control compound (mefloquine). Next, 30 μl of the parasite suspension in screening medium was then dispensed into the assay plates such that the final parasitemia was 1% and the final hematocrit was 1.0%. Final concentration of DMSO was 0.125%. Mefloquine at a final concentration of 20 μM and DMSO at a final concentration of 0.125% were used within the assay plates to serve as background and baseline controls, respectively. The assay plates were transferred to incubators (93% nitrogen, 4% carbon dioxide, and 3% oxygen during the 72 h incubation at 37° C.). Ten microliters of detection reagent consisting of 10×SYBR Green I (Invitrogen; supplied in 10,000× concentration) in lysis buffer (20 mM Tris-HCl, 5 mM EDTA, 0.16% Saponin wt/vol, 1.6% Triton X vol/vol) was dispensed into the assay plates. For optimal staining, the assay plates were left at room temperature for 24 h in the dark. The assay plates were read by using an Envision (PerkinElmer) reader, with 505 dichroic mirrors with 485-nm excitation and 530-nm emission settings, and the plate reads were from the bottom.
By following the above-described protocol, the 50% effective concentration (EC50) for compounds 1-95 was measured against P. falciparum Dd2 and the results are shown in Table 2: […]

[1] = Plasmodium falciparum, DD2, 72 h

Row | SMILES | EC50 [1] | EC50
1 | O=C(Nc1ccccc1F)N1CCCCN2[C@H](CO)[C@H](c3ccc(C#Cc4ccccc4)cc3)[C@@H]2C1 [Compound 49, (8R,9R,10S)-N-(2-fluorophenyl)-10-(hydroxymethyl)-9-[4-(2-phenylethynyl)phenyl]-1,6-diazabicyclo[6.2.0] decane-6-carboxamide] | 65 nM | –
2 | O=C(Nc1ccncc1)N1CCCCN2[C@H](CO)[C@H](c3ccc(C#Cc4ccccc4)cc3)[C@@H]2C1 [Compound 50, (8R,9R,10S)-10-(hydroxymethyl)-9-[4-(2-phenylethynyl)phenyl]-N-(pyridin-4-yl)-1,6-diazabicyclo[6.2.0] decane-6-carboxamide] | 1230 nM | –
3 | COc1ccc(NC(=O)N2CCCCN3[C@H](CO)[C@H](c4ccc(C#Cc5ccc(F)cc5)cc4)[C@@H]3C2)cc1 [Compound 51, (8R,9R,10S)-9-{4-[2-(4-fluorophenyl)ethynyl]phenyl}-10-(hydroxymethyl)-N-(4-methoxyphenyl)-1,6-diazabicyclo[6.2.0] decane-6-carboxamide] | 11 nM | –
4 | O=C(Nc1ccc(F)cc1)N1CCCCN2[C@H](CO)[C@H](c3ccc(C#Cc4ccccc4)cc3)[C@@H]2C1 [Compound 54, (8R,9R,10S)-N-(4-fluorophenyl)-10-(hydroxymethyl)-9-[4-(2-phenylethynyl)phenyl]-1,6-diazabicyclo[6.2.0] decane-6-carboxamide] | – | 156 nM
5 | COc1ccc(NC(=O)N2CCCCN3[C@H](CN4CCOCC4)[C@H](c4ccc(C#Cc5ccccc5)cc4)[C@@H]3C2)cc1 [Compound 55, (8R,9S,10S)-N-(4-methoxyphenyl)-10-(morpholin-4-ylmethyl)-9-[4-(2-phenylethynyl)phenyl]-1,6-diazabicyclo[6.2.0] decane-6-carboxamide] | 5 nM | –
6 | COc1cccc(NC(=O)N2CCCCN3[C@H](CO)[C@H](c4ccc(C#Cc5ccccc5)cc4)[C@@H]3C2)c1 [Compound 56] | 80 nM | –
7 | O=C(Nc1cccnc1)N1CCCCN2[C@H](CO)[C@H](c3ccc(C#Cc4ccccc4)cc3)[C@@H]2C1 [Compound 59, (8R,9R,10S)-10-(hydroxymethyl)-9-[4-(2-phenylethynyl)phenyl]-N-(pyridin-3-yl)-1,6-diazabicyclo[6.2.0] decane-6-carboxamide] | 2700 nM | –

Other lines, results leading:

Row | EC50 [1] | EC50 | SMILES
8 | 17 nM | – | COc1ccc(NC(=O)N2CCCCN3[C@@H](CO)[C@H](c4ccc(C#Cc5ccccc5)cc4)[C@@H]3C2)cc1 [Compound 52, (8R,9R,10R)-10-(hydroxymethyl)-N-(4-methoxyphenyl)-9-[4-(2-phenylethynyl)phenyl]-1,6-diazabicyclo[6.2.0] decane-6-carboxamide]
9 | 2770 nM | – | COc1ccc(NC(=O)N2CCCCN3[C@H](C(=O)O)[C@H](c4ccc(C#Cc5ccccc5)cc4)[C@@H]3C2)cc1 [Compound 53, (8R,9R,10S)-6-[(4-methoxyphenyl)carbamoyl]-9-[4-(2-phenylethynyl)phenyl]-1,6-diazabicyclo[6.2.0] decane-10-carboxylic acid]
10 | 98 nM | – | COc1ccc(NC(=O)N2CCCCN3[C@H](CN)[C@H](c4ccc(C#Cc5ccccn5)cc4)[C@@H]3C2)cc1 [Compound 57, (8R,9S,10S)-10-(aminomethyl)-N-(4-methoxyphenyl)-9-{4-[2-(pyridin-2-yl)ethynyl]phenyl}-1,6-diazabicyclo[6.2.0] decane-6-carboxamide]
11 | 6 nM | – | COc1ccc(NC(=O)N2CCCCN3[C@H](CNC(C)=O)[C@H](c4ccc(C#Cc5ccccc5)cc4)[C@@H]3C2)cc1 [Compound 58, (8R,9S,10S)-10-(acetamidomethyl)-N-(4-methoxyphenyl)-9-[4-(2-phenylethynyl)phenyl]-1,6-diazabicyclo[6.2.0] decane-6-carboxamide]
12 | 61 nM | – | COc1ccc(NC(=O)N2CCCCN3[C@H](CO)[C@H](c4ccc(C#Cc5cccnc5)cc4)[C@@H]3C2)cc1 [Compound 60, (8R,9R,10S)-10-(hydroxymethyl)-N-(4-methoxyphenyl)-9-{4-[2-(pyridin-3-yl)ethynyl]phenyl}-1,6-diazabicyclo[6.2.0] decane-6-carboxamide]
